Tests used:
[1] = test system: differentiated PC12 cells; assay: Suppression of apoptosis in differentiated PC12 cells after NGF withdrawal, TUNEL staining; assay type: cell-based, rat; details: for TUNEL-positive cells (%): NGF withdrawal
Experimental: (§1) (1) After growing rat adrenal pheochromocytoma PC12 cells (obtained by: ATCC; importer: Dainippon Pharmaceutical) with RPMI1640 containing 10 ml/l heat-inactivated horse serum and 5 ml/l heat-inactivated fetal calf serum, culturing was performed with RPMI1640 containing mouse β NGF (100 ng/ml), N2 supplement, and TIP (5 μg/ml transferrin, 5 μg/ml insulin, and 10 ng/ml progesterone). Differentiation to neuron-like cells was performed.
(§2) (2) Differentiated PC12 cells were washed with Neurobasal culture medium. After replacing the culture medium with RPMI1640 not containing β NGF, N2 supplement, and TIP, mouse β NGF antibodies (final concentration: 50 ng/ml) were added. By culturing for 24 hrs, apoptosis was induced.
(§3) 0.01-1 μM) to fresh culture medium during medium replacement and culturing was performed for the same amount of time. As a negative control, a solvent (ethanol) alone was added in the same manner and culturing was performed for the same period of time. Apoptosis detection was performed by Hoechst 33342 staining (at 1 mM with a reaction in 2 minutes at room temperature) after fixation (room temperature for 30 mins) of cells with a 1% glutaraldehyde solution. Observation was made from 5 arbitrary visual fields using a fluorescence microscope. Total cell and apoptotic cells were counted, and incident of apoptosis was calculated.
As regards the apoptosis-suppressing activity of PGE1 in nerve neurons, the manners other than TUNEL staining for detection of apoptosis were in accordance with ones in Experiment 1. The results are indicated in Table2.

[2] = test system: differentiated PC12 cells; assay: Suppression of apoptosis in differentiated PC12 cells after NGF withdrawal, Hoechst 33342 staining; assay type: cell-based, rat; details: for Incidence of apoptosis (%): 24 hrs, NGF withdrawal, mean ± SEM
Experimental: as §1, §2
(3) A PGE1 ethanol solution was added (final concentration:
as §3
(4) The values obtained were expressed as means±SEM. As for statistical analysis, a student's t-test (hereafter noted as a t-test) was used for two groups and Dunnet's test was used after one-way layout dimensional analysis (one-way ANOVA) for numerous groups; critical values for both were considered to be a significant difference below 5%.

NRK52E cells [3] = assay: Apoptosis induced by NO donor GSNO in NRK52E kidney cells; assay type: cell-based, rat
Experimental: (§4) 1) Apoptosis was induced by NO (nitrogen monoxide) in kidney cells. NRK52E cells, which are established from a rat renal tubule epithelial cell line, mainly derived from distal were cultured for 24 hours with a chamber slide that was coated with type-I collagen. Afterwards, the cultured medium was changed to a serum-free medium, and apoptosis was induced by addition of NOC12 (0.4 mM) or S-nitroso L-glutathione (GSNO: 1 mM), which are NO donors.
(§5) 4) Inhibitory effect of PGE1 to the induction of apoptosis in kidney cells was investigated PGE1 was added simultaneously with the addition of a NO donor to a final concentration of 1 or 10 μM. After 24 hrs, cells were fixed with a 1% glutaraldehyde solution and stained with Hoechst 33342. Three visual fields were selected arbitrarily per slide, and the ratio of the cells count where nuclear fragmentation and condensation appeared was calculated with respect to the total cells in the field (magnification: 400x). The n was 5.
5) The relationship between PGT inhibitors and kidney cell apoptosis induced by GSNO was examined. With a final concentration of BrCG, which is a PGT inhibitor, of 60 μM, manners other than simultaneous addition with GSNO and PGE1 were in accordance with the aforementioned ones in 4). The PGE1 final concentration was 1 μM. The n was 3.
1) Drugs having suppressing activity on apoptosis inducted in kidney cells by an NO donor were investigated. PGK1 and bicyclo PGE2 were used as test drugs, but other manners were in accordance with Experiment 8. The final concentration of the test drugs was 1 μM. The n was 5.
2) It was investigated the effects of a PGT inhibitor on the apoptosis-suppressing activity of PGK1 and bicyclo PGE2 in kidney cells. With a final concentration of BrCG, which is a PGT inhibitor, of 60 μM, manners other than simultaneous addition of GSNO and test drugs were in accordance with the aforementioned methods in 1). The n was 4.

NRK52E cells [4] = assay: Apoptosis induced by NO donor NOC12 in NRK52E kidney cells; assay type: cell-based, rat; details: NOC12 0.4 mM, 24 hrs, n 5
Experimental: as §4, §5

PGT = target: T1, PGT (Rattus norvegicus, UniProt Q00910); assay: Uptake of tritium-labelled PGE1 into differentiated PC12 cells through PGT; assay type: cell-based; details: tritium-labelled PGE1 0.1 μM, mean ± SEM
T1 construct: endogenous in cells; host or cells: differentiated PC12 cells
Experimental: 1) Differentiated PC12 cells and tritium-labelled PGE1 (added concentration: 0.1 μM) were subjected to 10 mins of incubation at 37° C. Afterwards, the cells were washed with ice-cold phosphate buffered saline containing 5 g/l of bovine serum albumin and next washed with ice-cold phosphate buffered saline. Then, radioactivity was measured. The amount of PGE1 uptake into PC12 cells was calculated.
2) Bromcresol green (hereinafter noted as “BrCG”), which is a PGT inhibitor, was placed together in the culture medium at the addition of PGE1. Afterwards, treatment was conducted in the same manner as mentioned in 1).
3) The antisense oligonucleotide specific to PGT cDNA was designed as follows:
Moreover, said antisense was thioate modified. Using Lipofectin (Gibco), PC12 underwent transfection during 2 days prior to the addition of PGE1. Afterwards, treatment was conducted in the same manner as mentioned in 1).

[5] = Hypotensive effect in anesthetized normal rats, mean blood pressure; assay type: in vivo, rat; set-up: Decrease in blood pressure: unit not given here; details: 100 μg/kg body weight into caudal artery, mean blood pressure before and after, n 3
Experimental: 2) The hypotensive effect of the test drugs was examined. After anesthetizing normal rats (male, body weight of about 300 g) with intraperitoneal administration of Nembutal, the dorsal region was fixed. Next, a cannula was inserted in the carotid artery and blood pressure was measured through a transducer (Nihon Kohden Corporation); simultaneous recording was made in combination with a polygraph (Nihon Kohden Corporation). After dissolving the test drugs in ethanol, and diluted (x200) with saline. Administration was given in the caudal artery in a dose of 100 μg/kg body weight. The mean blood pressure (MBP) was measured. The decrease in blood pressure was calculated from the measured values before and after administration. The n was 3 per group.

CCCCC[C@H](O)/C=C/[C@H]1[C@H](O)CC(=O)[C@@H]1CCCCCCC(=O)O [PGE1, prostaglandin E1]
Effect on cell apoptosis (in words) ([1]; PGE1 0.1 μM and 1 μM): suppressed cell apoptosis
TUNEL-positive cells (%) ([1]; PGE1 0.1 μM): 13.80 ± 0.75%
TUNEL-positive cells (%) ([1]; PGE1 1 μM): 8.10 ± 1.57%
Incidence of apoptosis (%) ([2]; PGE1 0.01 μM): 21.3 ± 1.5%
Incidence of apoptosis (%) ([2]; PGE1 0.1 μM): 19.1 ± 8.1%
Effect on cell apoptosis (in words) ([2]; PGE1 1 μM): suppressed cell apoptosis
Incidence of apoptosis (%) ([2]; PGE1 1 μM): 17.1 ± 0.6%
Effect on apoptosis in kidney cells (in words) (NRK52E cells [3]; NO donor GSNO): suppressed induction of apoptosis in kidney cells
Incidence of apoptosis (%) (NRK52E cells [3]; Table 11, GSNO 1 mM, PGE1 1 μM, 24 hrs, n 5): 10 ± 2 %
Incidence of apoptosis (%) (NRK52E cells [3]; Table 11, GSNO 1 mM, PGE1 10 μM, 24 hrs, n 5): 11 ± 3 %
Incidence of apoptosis (%) (NRK52E cells [3]; Table 12, GSNO, PGE1 1 μM, n 3): 8 ± 2%
Incidence of apoptosis (%) (NRK52E cells [4]; PGE1 1 μM): 11 ± 2 %
Incidence of apoptosis (%) (NRK52E cells [4]; PGE1 10 μM): 6 ± 1 %
Amount of PGE1 uptake (PGT; 10 mins at 37° C., no BrCG (Table 3)): 73 ± 11 fmol/mg protein/10 mins
Amount of PGE1 uptake (PGT; no antisense (Table 4)): 78 ± 11 fmol/mg protein/10 mins
Decrease in blood pressure [5]: −55

— US20020127228A1, “PGT and apoptosis” (WELFIDE CORPORATION, priority 1998, published 2002)
